The text below walks through data of ChEMBL document CHEMBL3352395, “Quantitative structure-activity relationship of antifungal activity of rosin derivatives” (2015).

In one test the test system is Trametes versicolor. The test is described as follows: Antifungal activity against Trametes versicolor after 3 to 5 days by paper disc method relative to 1227. Type of test: functional.
For the next test, the system named is Gloeophyllum trabeum. The test is described as follows: Antifungal activity against Gloeophyllum trabeum after 3 to 5 days by paper disc method relative to 1227. Type of test: functional.

As for `CC(C)C1CC[C@H]2C(CC[C@@H]3[C@]2(C)CCC[C@@]3(C)C(=O)O)C1` (stereo not given in full), in the test with Trametes versicolor, the Ratio was 26.67 and the “log(ratio)” value was 1.426. In the test on Gloeophyllum trabeum, the Ratio is 36.36 and the “log(ratio)” value came to 1.5607.
For `CC(C)C1CC[C@H]2C(CC[C@@H]3[C@]2(C)CCC[C@@]3(C)C(=O)OCC(O)CCl)C1` (stereo not given in full), in the test with Trametes versicolor, the Ratio is 26.67 and the “log(ratio)” value is given as 1.426. Also, in the test on Gloeophyllum trabeum, the Ratio was found to be 36.36 and the “log(ratio)” value is listed as 1.5607.
On the same counts, the results for `CC(C)C1=CC23CC[C@@H]4[C@](C)(CCC[C@@]4(C)C(=O)O)[C@H]2CC1CC3C(=O)O` (stereo not given in full) are 26.67, 1.426, 36.36 and 1.5607.
Consider `CC(C)C1=CC23CC[C@@H]4[C@](C)(CCC[C@@]4(C)C(=O)OCC(O)CCl)[C@H]2CC1CC3C(=O)OCC(O)CCl` (stereo not given in full), for which, in the test with Trametes versicolor, the Ratio worked out at 26.67 and the “log(ratio)” value is on record as 1.426. Moreover, in the test with Gloeophyllum trabeum, the Ratio is 36.36 and the “log(ratio)” value came out at 1.5607.
On the same counts, the results for `CCOC(=O)[C@]1(C)CCC[C@@]2(C)[C@H]1CC=C1C=C(C(C)C)CC[C@@H]12` are 26.67, 1.426, 36.36 and 1.5607.
For the compound `CC(C)C1=CC2=CC[C@@H]3[C@](C)(CCC[C@@]3(C)C(=O)OCC(O)CCl)[C@H]2CC1` (stereo not given in full), the Ratio in the test with Trametes versicolor is 26.67; in the test on Gloeophyllum trabeum it was 36.36. The “log(ratio)” value in the test on Trametes versicolor came to 1.426; in the test with Gloeophyllum trabeum, 1.5607.
Turning to `CC(C)c1ccc2c(c1)CC[C@H]1[C@](C)(C(=O)OCC(O)CCl)CCC[C@]21C` (stereo not given in full), the Ratio with Trametes versicolor was 30; in the test with Gloeophyllum trabeum it was 40.91. In addition, the “log(ratio)” value in the test with Trametes versicolor is 1.4771; with Gloeophyllum trabeum it was 1.6118.
Taken in the same sequence, the figures for `CC(C)C1CC[C@H]2C(CC[C@@H]3[C@]2(C)CCC[C@@]3(C)C(=O)OCC(O)C[N+](C)(C)C)C1` (stereo not given in full) were 53.33, 59.09, 1.727 and 1.7715.
Consider `CC[N+](CC)(CC)CC(O)COC(=O)[C@]1(C)CCC[C@@]2(C)[C@H]1CCC1CC(C(C)C)CC[C@@H]12` (stereo not given in full), for which, in the test with Trametes versicolor, the Ratio was 56.67 and the “log(ratio)” value was 1.7533. In the test on Gloeophyllum trabeum, the Ratio turned out to be 59.09 and the “log(ratio)” value amounted to 1.7715.
On the same counts, the results for `CC[N+](CC)(CC(O)COC(=O)[C@]1(C)CCC[C@@]2(C)[C@H]1CCC1CC(C(C)C)CC[C@@H]12)CC1CO1` (stereo not given in full) are 40, 1.6021, 59.09 and 1.7715.
`CCN(CC)CC(O)COC(=O)[C@]1(C)CCC[C@@]2(C)[C@H]1CCC1CC(C(C)C)CC[C@@H]12` (stereo not given in full): the Ratio is given as 33.33 in the test on Trametes versicolor and 50 in the test with Gloeophyllum trabeum. Moreover, the “log(ratio)” value was determined as 1.5229 in the test on Trametes versicolor and 1.699 with Gloeophyllum trabeum.
As to `CC(C)C1=CC2=CC[C@@H]3[C@](C)(CCC[C@@]3(C)C(=O)OCC(O)C[N+](C)(C)CC3CO3)[C@H]2CC1` (stereo not given in full), in the test with Trametes versicolor, the Ratio is listed as 46.67 and the “log(ratio)” value worked out at 1.669. In the test on Gloeophyllum trabeum, the Ratio was determined as 63.64 and the “log(ratio)” value is 1.8037.
As for `CC(C)c1ccc2c(c1)CC[C@H]1[C@](C)(C(=O)OCC(O)C[N+](C)(C)C)CCC[C@]21C` (stereo not given in full), the Ratio with Trametes versicolor was 60; in the test with Gloeophyllum trabeum, 81.82. Besides, the figures for the “log(ratio)” value with Trametes versicolor and in the test on Gloeophyllum trabeum were 1.7782 and 1.9128, respectively.
As to `CC[N+](CC)(CC)CC(O)COC(=O)[C@]1(C)CCC[C@]2(C)c3ccc(C(C)C)cc3CC[C@@H]12` (stereo not given in full), the Ratio in the test with Trametes versicolor was 56.67; in the test on Gloeophyllum trabeum, 81.82. In addition, the “log(ratio)” value was found to be 1.7533 in the test on Trametes versicolor and 1.9128 in the test on Gloeophyllum trabeum.
Taken in the same sequence, the figures for `CC(C)c1ccc2c(c1)CC[C@H]1[C@](C)(C(=O)OCC(O)CN(C)C)CCC[C@]21C` (stereo not given in full) were 43.33, 68.18, 1.6368 and 1.8337.
Taken in the same sequence, the figures for `CC(C)c1ccc2c(c1)CC[C@H]1[C@](C)(C(=O)OCC(O)C[N+](C)(C)CC3CO3)CCC[C@]21C` (stereo not given in full) were 50, 77.27, 1.699 and 1.888.
Taken in the same sequence, the figures for `CC(C)C1=CC23CC[C@@H]4[C@](C)(CCC[C@@]4(C)C(=O)OCC(O)C[N+](C)(C)C)[C@H]2CC1CC3C(=O)OCC(O)C[N+](C)(C)C` (stereo not given in full) were 70, 81.82, 1.8451 and 1.9128.
Turning to `CC[N+](CC)(CC)CC(O)COC(=O)C1CC2C[C@H]3C1(C=C2C(C)C)CC[C@@H]1[C@]3(C)CCC[C@@]1(C)C(=O)OCC(O)C[N+](CC)(CC)CC` (stereo not given in full), in the test with Trametes versicolor, the Ratio is given as 66.67 and the “log(ratio)” value worked out at 1.8239. Besides, in the test on Gloeophyllum trabeum, the Ratio was determined as 77.27 and the “log(ratio)” value is 1.888.
`CC(C)C1=CC23CC[C@@H]4[C@](C)(CCC[C@@]4(C)C(=O)OCC(O)CN(C)C)[C@H]2CC1CC3C(=O)OCC(O)CN(C)C` (stereo not given in full): in the test on Trametes versicolor, the Ratio is reported as 46.67 and the “log(ratio)” value worked out at 1.669. Also, in the test on Gloeophyllum trabeum, the Ratio is reported as 59.09 and the “log(ratio)” value is recorded as 1.7715.
Regarding `CC(C)C1=CC23CC[C@@H]4[C@](C)(CCC[C@@]4(C)C(=O)OCC(O)C[N+](C)(C)CC4CO4)[C@H]2CC1CC3C(=O)OCC(O)C[N+](C)(C)CC1CO1` (stereo not given in full), the results for the Ratio in the test with Trametes versicolor and with Gloeophyllum trabeum were 60 and 77.27, respectively. Further, the “log(ratio)” value in the test on Trametes versicolor amounted to 1.7782; with Gloeophyllum trabeum, 1.888.
On to `CC[N+](CC)(CC(O)COC(=O)C1CC2C[C@H]3C1(C=C2C(C)C)CC[C@@H]1[C@]3(C)CCC[C@@]1(C)C(=O)OCC(O)C[N+](CC)(CC)CC1CO1)CC1CO1` (stereo not given in full), for which, in the test with Trametes versicolor, the Ratio is 63.33 and the “log(ratio)” value is given as 1.8016. In the test on Gloeophyllum trabeum, the Ratio was determined as 77.27 and the “log(ratio)” value is recorded as 1.888.
On to `CC(C)C1=CC2=CC[C@@H]3[C@](C)(CCC[C@@]3(C)C(=O)OCC(O)C[N+](C)(C)CC[N+](C)(C)CC(O)COC(=O)[C@]3(C)CCC[C@@]4(C)[C@H]3CC=C3C=C(C(C)C)CC[C@@H]34)[C@H]2CC1` (stereo not given in full), for which, in the test on Trametes versicolor, the Ratio came out at 56.67 and the “log(ratio)” value turned out to be 1.7533. Besides, in the test with Gloeophyllum trabeum, the Ratio is 72.73 and the “log(ratio)” value was 1.8617.
`CC[N+](CC)(CC)CC(O)COC(=O)C1C2C[C@H]3C(C=C2C(C)C)(CC[C@@H]2[C@]3(C)CCC[C@@]2(C)C(=O)OCC(O)C[N+](CC)(CC)CC)C1C(=O)OCC(O)C[N+](CC)(CC)CC.[Cl-].[Cl-].[Cl-]` (stereo not given in full): the Ratio came to 86.7 with Trametes versicolor and 95.5 in the test on Gloeophyllum trabeum. Besides, the “inhibition zone (IZ)” value was 26 mm in the test with Trametes versicolor and 21 mm in the test on Gloeophyllum trabeum.
Consider `CC(C)C1=CC2=CC[C@@H]3[C@](C)(CCC[C@@]3(C)C(=O)O)[C@H]2CC1` [ABIETIC ACID], for which the Ratio in the test with Trametes versicolor is listed as 26.67; in the test on Gloeophyllum trabeum, 36.36. Also, the “log(ratio)” value in the test with Trametes versicolor is 1.426; with Gloeophyllum trabeum it was 1.5607.
On the same counts, the results for `CC(C)c1ccc2c(c1)CC[C@H]1[C@](C)(C(=O)O)CCC[C@]21C` [DEHYDROABIETIC ACID] are 30, 40.91, 1.4771 and 1.6118.
